Test results published in patent publication US7897588B2, “Agents and methods for enhancing bone formation” (The Regents of the University of California, priority 2003, dated 2011).

What was measured:
Assay type in all cases: cell-based, mouse
ERK1 and ERK2 = assay: Western blot for phosphorylated ERK in M2 cells; conditions: 5 μM 20S, 1, 4 or 8 hours
Procedure: Western blot analysis—After treatments, cells were lysed in lysis buffer, protein concentrations determined using the Bio-Rad protein assay (Hercules, Calif. U.S.A.), and SDS-PAGE performed as previously described. Probing for native and phosphorylated ERKs was performed as previously reported.
(A) M2 cells at confluence were pretreated for four hours with RPMI containing 1% FBS, followed by treatment with control vehicle or 5 μM 20S oxysterol for 1, 4, or 8 hours. Next total cell extracts were prepared and analyzed for levels of native or phosphorylated ERK (pERK) using specific antibodies as previously described. Data from a representative of four experiments are shown, each treatment shown in duplicate samples. (B) M2 cells at confluence were pretreated for 2 hours with control vehicle (C) or 20 μM PD98059 (PD) in osteogenic medium as previously described. Next, a combination of 22R and 20S oxysterols (RS, 5 μM each) were added to appropriate wells as indicated. After 10 days of incubation, matrix mineralization was quantified by the ^45Ca incorporation assay as previously described. Data from a representative of three experiments are reported as the mean±SD of quadruplicate determinations, normalized to protein concentration (p<0.01 for RS vs. RS+PD). […] After 10 days, adipocytes were visualized by oil Red O staining and quantified by light microscopy as previously described. […]

lipoprotein lipase (LPL) = assay: Northern blot for lipoprotein lipase in troglitazone-treated M2 cells; conditions: 10 μM Tro, 10 μM 20S, 10 days
Procedure: (§1) RNA isolation and Northern blot analysis—Following treatment of cells under appropriate experimental conditions, total RNA was isolated using the RNA isolation kit from Stratagene (La Jolla, Calif., U.S.A.). Total RNA ([…]) was run on a 1% agarose/formaldehyde gel and transferred to Duralon-UV membranes (Strategene, Calif., U.S.A.) and cross-linked with UV light. The membranes were hybridized overnight at 60 degree C. with ^32P-labeled mouse osteocalcin cDNA probe, mouse lipoprotein lipase (LPL), mouse adipocyte protein 2 (aP2) PCR-generated probes, human 28S or 18S rRNA probes obtained from Geneka Biotechnology (Montreal, Quebec, Canada) and Maxim Biotech (San Francisco, Calif., U.S.A.), respectively. […] The extent of gene induction was determined by densitometry.
(§2) Test 2: (A) M2 cells at confluence were treated in RPMI containing 10% FBS with control vehicle or 10 μM troglitazone (Tro) in the absence or presence of 10 μM 20S or 22S oxysterols. After 10 days, adipocytes were visualized by oil Red O staining and quantified by light microscopy, shown in (B). […] After 10 days, total RNA was isolated and analyzed for lipoprotein lipase (LPL), adipocyte P2 gene (aP2) or 18S rRNA expression by Northern blotting as described (Ref). […]

adipocyte P2 gene (aP2) = assay: Northern blot for adipocyte P2 gene in troglitazone-treated M2 cells; conditions: 10 μM Tro, 10 μM 20S, 10 days
Procedure: as §1, §2

`CC(C)CCC[C@](C)(O)[C@H]1CC[C@H]2[C@@H]3CC=C4C[C@@H](O)CC[C@]4(C)[C@H]3CC[C@@]21C` [20S, 20(S)-hydroxycholesterol] was tested. Which “activation of ERK1 and ERK2” value (ERK1 and ERK2) did it give?
Its value is “sustained activation”.

What about the “expression of lipoprotein lipase (LPL)” value (lipoprotein lipase (LPL)) of the same compound?
The value was “inhibition”.

And the “expression of adipocyte P2 gene (aP2)” value (adipocyte P2 gene (aP2))?
The value was “inhibition”.
